In patent publication US20220402867A1, “SULFO-SUBSTITUTED BIARYL COMPOUND OR SALT THEREOF, PREPARATION METHOD THEREFOR, AND USE THEREOF” (Shanghai Litedd Co., Ltd., priority 2019, published 2022):
pEC50: −log10 of the molar value.

Experiments:
human PBMC (Th17 cells) = assay: Th17 differentiation and IL-17 secretion in human PBMC; assay type: cell-based; details: IL-17 ELISA after 48 hours; for Emax: maximum activation rate
Experimental: Test procedure: PBMC cells were first thawed and plated, and then stimulated with stimulating factors (anti-hCD28: 5 μg/mL; rhTGF-β1: 5 ng/mL; rhIL-6: 20 ng/mL; rhIL-23: 10 ng/Ml) to differentiate to Th17, while adding different concentrations of compounds. All test compounds were serially diluted at 3-fold dilution with DMSO, with 8 serial dilutions starting from the maximum concentration 3 μM. The supermatants were collected after 48 hours for IL-17 ELISA detection, and compared with the solvent group, to determine the activation rate of the compounds on Th17 cells to secrete IL-17. EC50 values were fitted with Graphad8.0, and the TOP values fitted by the software was Emax %.

GST-RORγ LBD (263-509) = biological target: T1, GST-RORγ LBD (263-509) (Homo sapiens, UniProt P51449); assay: TR-FRET assay of agonistic activity on RORγ receptor; assay type: biochemical; details: for pEC50: TR-FRET, GST-RORγ LBD with Biotin-SRC1; for Emax: maximum activation rate, TOP of fitted curve
T1 construct: GST-RORγ LBD ((263-509) (produced at ChemPartner))
T1 sequence (P51449 263-509): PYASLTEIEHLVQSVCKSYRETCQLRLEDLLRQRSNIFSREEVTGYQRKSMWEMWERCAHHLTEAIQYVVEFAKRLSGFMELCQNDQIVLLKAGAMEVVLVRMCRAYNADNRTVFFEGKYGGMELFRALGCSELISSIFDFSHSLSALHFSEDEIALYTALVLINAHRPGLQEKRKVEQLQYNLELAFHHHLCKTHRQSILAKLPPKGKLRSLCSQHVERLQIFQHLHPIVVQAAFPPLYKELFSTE
Method in brief: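 GST-RORγ LBD (75 nM solution) mixed 1:1 with Biotin-SRC1 (4 nM solution), then with Eu anti-GST and SA-APC; compounds in 10-point 3-fold series from 10 mM stock, duplicate.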

[1] = Metabolic stability in mouse liver microsomes; assay type: in vitro ADME, CD-1 mice; details: for half-life: CD-1; for microsomal CLint: CD-1, 0.5 mg protein/mL
Method in brief: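 Compound incubated at 37 °C with 0.5 mg protein/mL liver microsomes plus cofactors in PBS, sampled at 0–60 min, quenched with cold acetonitrile and quantified by HPLC-MS/MS (n=3). Half-life and Clint (μL/min/mg) come from the slope of ln(% remaining) versus time.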

| Structure (SMILES) | pEC50 (human PBMC (Th17 cells)) | Emax (human PBMC (Th17 cells)) [%] | pEC50 (GST-RORγ LBD (263-509)) | Emax (GST-RORγ LBD (263-509)) [%] | % Remaining (T = 60 min) [1] [%] | half-life [1] [h] | microsomal CLint [1] [µL/min/mg] |
| --- | --- | --- | --- | --- | --- | --- | --- |
| COCC(C(=O)Nc1ccc(-c2ccc(S(=O)(=O)C3CC3)cc2)c(C(F)(F)F)c1)c1ccc(S(C)(=O)=O)cc1 (single isomer, unassigned) [Example 43, (S)—N-(4′-(cyclopropylsulfonyl)-2-(trifluoromethyl)-[1,1′-biphenyl]-4-yl)-3-methoxy-2-(4-(methylsulfonyl)phenyl)propionamide or (R)—N-(4′-(cyclopropylsulfonyl)-2-(trifluoromethyl)-[1,1′-biphenyl]-4-yl)-3-methoxy-2-(4-(methylsulfonyl)phenyl)propanamide] | 6.87 | 265 | 8.21 | 194 | 64.4 | 1.56 | 14.8 |
| CCS(=O)(=O)c1ccc(CC(=O)Nc2cc(Cl)c(-c3ccc(S(C)(=O)=O)cc3)c(Cl)c2)cc1 [Example 2, N-(2,6-dichloro-4′-(methylsulfonyl)-[1,1′-biphenyl]-4-yl)-2-(4-(ethylsulfonyl)phenyl)acetamide] | 7.21 | 138 | 8.04 | 210 | 89.30 | > 2.42 | < 9.6 |
| CCS(=O)(=O)c1ccc(-c2c(Cl)cc(NC(=O)Cc3ccc(S(C)(=O)=O)cc3)cc2Cl)cc1 [Example 4, N-(2,6-Dichloro-4′-(ethylsulfonyl)-[1,1′-biphenyl]-4-yl)-2-(4-(methylsulfonyl)phenyl)acetamide] | 7.52 | 152 | 8.02 | 220 | 22.20 | 0.47 | – |
| CCS(=O)(=O)c1ccc(-c2c(Cl)cc(NC(=O)Cc3ccc(S(=O)(=O)CC)cn3)cc2Cl)cc1 [Example 5, N-(2,6-Dichloro-4′-(ethylsulfonyl)-[1,1′-biphenyl]-4-yl)-2-(5-(ethylsulfonyl)pyridin-2-yl)acetamide] | 7.48 | 123 | 8.07 | 222 | 35.50 | 0.707 | – |
| CCS(=O)(=O)c1ccc(CC(=O)Nc2cc(Cl)c(-c3ccc(S(C)(=O)=O)cc3)c(Cl)c2)nc1 [Example 8, N-(2,6-Dichloro-4′-(methylsulfonyl)-[1,1′-biphenyl]-4-yl)-2-(5-(ethylsulfonyl)pyridin-2-yl)acetamide] | 6.46 | 129 | 8.00 | 170 | 107.80 | > 2.42 | < 9.6 |
| CCS(=O)(=O)c1ccc(-c2c(Cl)cc(NC(=O)Cc3ccc(S(C)(=O)=O)cn3)cc2Cl)cc1 [Example 9, N-(2,6-Dichloro-4′-(ethylsulfonyl)-[1,1′-biphenyl]-4-yl)-2-(5-(methylsulfonyl)pyridin-2-yl)acetamide] | 6.44 | 167 | 7.65 | 160 | 64.20 | 1.64 | – |
| CS(=O)(=O)c1ccc(CC(=O)Nc2cc(Cl)c(-c3ccc(S(=O)(=O)C4CC4)cc3)c(Cl)c2)cc1 [Example 11, N-(2,6-Dichloro-4′-(cyclopropylsulfonyl)-[1,1′-biphenyl]-4-yl)-2-(4-(methylsulfonyl)phenyl)acetamide] | 7.28 | 149 | 8.17 | 167 | 97.10 | > 2.42 | < 9.6 |
| CCS(=O)(=O)c1ccc(-c2c(Cl)cc(NC(=O)C(COC)c3ccc(S(=O)(=O)CC)cc3)cc2Cl)cc1 (stereo not drawn) [Example 13, N-(2,6-Dichloro-4′-(ethylsulfonyl)-[1,1′-biphenyl]-4-yl)-2-(4-(ethylsulfonyl)phenyl)-3-methoxypropionamide] | 8.21 | 139 | 7.92 | 171 | 28 | 0.543 | – |
| CCS(=O)(=O)c1ccc(C(COC)C(=O)Nc2cc(Cl)c(-c3ccc(S(=O)(=O)C4CC4)cc3)c(Cl)c2)cc1 (stereo not drawn) [Example 16, N-(2,6-Dichloro-4′-(cyclopropylsulfonyl)-[1,1′-biphenyl]-4-yl)-2-(4-(ethylsulfonyl)phenyl)-3-methoxypropionamide] | 7.56 | 202 | 7.78 | 187 | 68.90 | 2.24 | 10.7 |
| COCC(C(=O)Nc1cc(Cl)c(-c2ccc(S(=O)(=O)C3CC3)cc2)c(Cl)c1)c1ccc(S(C)(=O)=O)cc1 (stereo not drawn) [Example 20, N-(2,6-Dichloro-4′-(cyclopropylsulfonyl)-[1,1′-biphenyl]-4-yl)-3-methoxy-2-(4-(methylsulfonyl)phenyl)propionamide] | 7.72 | 228 | 7.71 | 192 | 75.50 | 2.21 | 10.5 |
